# Assay results: US11110158B2, “Prostate-associated antigens and vaccine-based immunotherapy regimens” (Pfizer Inc., priority 2012, dated 2021)
# Columns and labels:
# rhesus PSMA = assay: IFNγ ELISPOT of PBMCs, rhesus PSMA adenovirus with subcutaneous anti-CTLA-4 in Indian rhesus macaques; format: in vivo; conditions: versus vaccine alone
# Description: Five groups of male Indian rhesus macaques, seven (#1 to 7) per each test group, were immunized with an adenovirus encoding a rhesus PSMA modified polypeptide delivered by bilateral intramuscular injections (2×5e10 V.P.). Immediately following the adenovirus injections, group 1 received vehicle, and groups 2 to 4 received bilateral subcutaneous injections of anti-CTLA-4 antibody (CP-675, 206) at doses 2×25 mg, 2×16.7 mg and 2×8.4 mg respectively in proximity to the vaccine draining lymph node.
# Nine days after the immunization, peripheral blood mononuclear cells (PBMCs) were isolated from each animal and were subjected to an IFNγ ELISPOT assay to measure the rhesus PSMA specific T cell responses. Briefly, 4e5 PBMCs from individual animals were plated per well with pools of rhesus PSMA specific peptides (P1, P2, P3 or R1+R2 defined in table 24A) or nonspecific control peptides (human HER2 peptide pool) each at 2 ug/ml in IFNγ ELISPOT plates. The plates were incubated for 16 hrs at 37° C. and 5% CO2 and washed and developed after incubation as per manufacturer's instruction. The number of IFNγ spot forming cells (SFC) were counted by CTL reader. Each condition was performed in duplicates. The average of the duplicates from the background adjusted SFC of the rhesus PSMA specific peptide pools was normalized to the response in 1e6 PBMCs.
# A capture antibody specific to IFNγ […]BD Bioscience, #51-2525kc) is coated onto a polyvinylidene fluoride (PVDF) membrane in a microplate overnight at 4° C. The plate is blocked with serum/protein to prevent nonspecific binding to the antibody. After blocking, effector cells (such as splenocytes isolated from immunized mice or PBMCs isolated from rhesus macaques) and targets (such as PSMA peptides from peptide library, target cells pulsed with antigen specific peptides or tumor cells expressing the relevant antigens) are added to the wells and incubated overnight at 37° C. in a 5% CO2 incubator. Cytokine secreted by effector cells are captured by the coating antibody on the surface of the PVDF membrane. […]
# native PSMA protein = assay: Sandwich ELISA, anti-PSMA antibody titers in serum of vaccinated Pasteur mice; format: in vivo, mouse
# Description: The standard sandwich ELISA assay was done using an automated Biotek system. The plates were coated with 25 μl of native PSMA protein at a 1.0 μg/ml in PBS overnight, the plates were washed and blocked with 35 μl/well of 5% FBS 1×PBS-T 0.05% and incubated for 1 hour at RT on a shaker at 600 RPM. The blocking media was decanted and serial dilute vaccinated mouse serum with half log dilutions in 5% FBS 1×PBS-T 0.05% starting at 1:100 or 1:500 were made and 25μ samples of the diluted serum were added to each well of the 96 well plates and incubated for 1 hour at RT on a shaker at 600 RPM. The plates were washed 3 times with 75 ul/well in 1×PBS-T 0.05% using the Biotek ELx405, and 25 μl/well of 1:30,000 diluted anti-mouse IgG HRP (AbCam cat #ab20043) secondary antibody (diluted in 1×PBS-T 0.05%) was added to each well of the 96 well plates and incubated for 1 hour at RT on a shaker at 600 RPM. Plates were washed 5× with 75 ul/well in 1×PBS-T 0.05% using the Biotek EIx405. TMB Substrate was diluted at 1:10 and 25 μl was added to each well and incubated at RT for 30 minutes. The reaction was stopped by adding 12.5 μl/well of 1M H2SO4. Plates were read using the Spectramax Plus at 450 nm wavelength. Data were reported as titers and these could be reported as first positive (average and both values above 5% FBS PBS+3 time Standard Deviation) and/or as calculated titers at OD of 0.5 or 1.0. Serum from irrelevant vaccinated mice were used as negative controls.
# Eight- to 10-week old Pasteur mice were immunized using PMED method with the various plasmid DNAs expressing shuffled PSMA modified antigens in a prime/boost/boost regimen, two weeks apart between each vaccination as described in Example 1F. Antigen specific T and B cell responses were measured 7 days after the last immunization in an interferon-gamma (IFNγ) ELISPOT assay and sandwich ELISA respectively.
# [1] = test system: hPSMA full-length protein; assay: IFN-γ ELISPOT, hPSMA modified versus full-length DNA vaccine in Pasteur (HLA-A2/DR1) transgenic mice; format: in vivo, human
# Excerpt: The immune responses induced by DNA vaccination using a construct encoding an immunogenic PSMA polypeptide (the “human PSMA modified antigen” or “hPSMA modified”) consisting 15-750 amino acids (aa) of the native human PSMA protein of SEQ ID NO: 1 were compared with those induced by the native human full-length PSMA protein (hPSMA full length). Groups of female C57BL/6 mice or female Pasteur (HLA-A2/DR1) transgenic mice were primed on day 0 and boosted on days 14, 28 by PMED administration with a 2 μg dose of a DNA vaccine encoding either hPSMA full-length or hPSMA modified protein. Mice were bled and sacrificed on day 35 (7 days after the third vaccination) and T cell immune responses against the hPSMA full-length protein were determined in splenocytes by IFN-γ ELISPOT assay. For C57BL/6 mice, single cell suspensions of 5×10^5 splenocytes from individual animals were plated per well with […] purified hPSMA protein, 5×10^4 TRAMP-C2 cells alone, or TRAMP-C2 cells expressing hPSMA or a PSMA-PSA-PSCA fusion protein. […] Responses in Pasteur mice were also determined using 10 μg/ml purified PSMA protein or 5×10^4 SK-Mel5 cells that had been transduced with Adenoviral vectors expressing a control protein (Ad-eGFP) or the full-length human PSMA protein (Ad-hPSMA). […] The number of IFN-γ SFC was counted by a CTL reader. […]
Substance,"rhesus PSMA specific IFNγ T cell response (rhesus PSMA; group 2: 50 mg (2×25 mg) subcutaneous near vaccine draining lymph node, P=0.001)","rhesus PSMA specific IFNγ T cell response (rhesus PSMA; group 3: 33.4 mg subcutaneous, P=0.004)","rhesus PSMA specific IFNγ T cell response (rhesus PSMA; group 4: 16.7 mg subcutaneous, P=0.05)","ELISA (OD = 1) Average (+/−SD) (native PSMA protein; Table 3, anti-PSMA antibody titer calculated at OD of 1, Pasteur mice)","# of positive (native PSMA protein; Table 3, mice with anti-PSMA antibody response by ELISA / N)","ELISA (OD = 0.5) (native PSMA protein; Table 10, anti-PSMA antibody titer calculated at OD of 0.5, Pasteur mice)","# of positive (native PSMA protein; Table 10, mice with anti-PSMA antibody response by ELISA / mice tested)","IFN-γ T cell immune responses to the HLA-A2-restricted CD8+ T cell epitopes ([1]; Example 7, FIG. 27A, day 35, difference between groups not significant)","IFN-γ SFC to the purified hPSMA protein ([1]; Example 7, FIG. 27B, day 35, versus hPSMA full-length vaccine)"
"Tremelimumab: fully human IgG2 anti-CTLA-4 monoclonal antibody, CAS 745013-59-6, SEQ ID NOs:42 and 43",significantly enhanced,significantly enhanced,significantly enhanced,,,,,,
"PSMA modified: membrane-bound polypeptide of amino acids 15-750 of human PSMA, SEQ ID NO: 9; tested as DNA construct",,,,1067 (518),4/4,1159 (802),7/7,highest magnitude of IFN-γ T cell immune responses,higher frequencies of IFN-γ SFC
